According to article PMC5472792, “Bub1 positions Mad1 close to KNL1 MELT repeats to promote checkpoint signalling” (Nature Communications, 2017):
Changes are numbered by the printed parent chain. Square brackets hold non-standard residues; d marks the D form. Peptide text beside a SMILES is read from it. * marks the point of attachment. Biotin = O=C1N[C@H]2[C@H](CS[C@H]2CCCCC(=O)*)N1; pT = C[C@@H](OP(=O)(O)O)[C@H](N)C(=O)O; Nle = CCCC[C@H](N)C(=O)O

Assays:
Mad1 597–718 RLK/AAA = molecular target: T1, Mad1 597–718 RLK/AAA (Homo sapiens, UniProt Q9Y6D9, K619A/L618A/R617A); assay: SPR, binding of CD1 peptide to Mad1 597–718 RLK/AAA; settings: Mad1 597–718 RLK/AAA injected up to 250 μM, 25 °C
T1 construct: His; Strep; made in house; host or cells: E. coli BL21(DE3) (stated for the wild-type construct)
T1 sequence (Q9Y6D9 597-718 R617A/L618A/K619A limits assumed): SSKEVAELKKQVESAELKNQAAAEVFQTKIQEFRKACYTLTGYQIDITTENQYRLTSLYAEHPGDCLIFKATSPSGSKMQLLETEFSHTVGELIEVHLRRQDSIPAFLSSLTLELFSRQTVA
Description: To further investigate a possible direct interaction between Mad1 and CD1, we used surface plasmon resonance technology. […] To achieve a more efficient synthesis of CD1 peptides and in particularly of the phosphorylated peptides we used norleucine (Nle) instead of methionine (Met) but we cannot exclude that Mad1 will have a different affinity for peptides containing methionine. […] Given that Ser459 and Thr461 phosphorylation was critical for Bub1 functionality in vivo we tested if they affected Mad1 597–718 binding. […] As the Mad1 RLK motif is required for binding Bub1 in budding yeast in vivo[39], we tested whether this motif was required for direct binding to CD1 phosphorylated on Thr461. […] We furthermore analysed the binding of Mad1 597–718 to CD1 peptides harboring the Ile471Asp and […] (residues 474–476) mutations with Thr461 being phosphorylated.
Figure 4 Direct binding of Mad1 to CD1 peptide. […] The equilibrium dissociation constants, KD, were calculated using a steady-state affinity model and the lines represent the best fit to the model. […] (c) Sequence and summary of the affinity of CD1 peptides for Mad1 597–718 as determined by SPR.
Bub1 peptides were purchased from Biosyntan Gmbh (Germany). The purity obtained in the synthesis was 95–98% as determined by high-performance liquid chromatography (HPLC) and the identity of the peptides was confirmed by mass spectrometry. […]

[1] = molecular target: T2, Mad1 597–718 Glu710Ala/Phe712Ala (Homo sapiens, UniProt Q9Y6D9, E710A/F712A); assay: SPR, binding of CD1 peptide to Mad1 597–718 Glu710Ala/Phe712Ala; settings: steady state, similar to Fig. 4
T2 construct: His; Strep; made in house; host or cells: E. coli BL21(DE3) (stated for the wild-type construct)
T2 sequence (Q9Y6D9 597-718 E710A/F712A): T1 sequence (Q9Y6D9 597-718 R617A/L618A/K619A limits assumed) with A21R, A22L, A23K, E114A, F116A
Description: To investigate this, we first tested the role of these Mad1 residues in binding Bub1. We measured the ability of recombinant Mad1 (597–718) Glu710Ala/Phe712Ala to bind the CD1 peptide phosphorylated on Thr461. […] This argues that Mad1 has an important function in the checkpoint in addition to interacting with Mad2 and Bub1.
Figure 6 Residues in Mad1 are important for SAC function but not Bub1 binding. (a) SPR steady-state responses for pT461 Bub1 CD1 peptides to purified Mad1 597–718 Glu710Ala/Phe712Ala protein similar to Fig. 4. (b) Nocodazole arrested stable HeLa cell lines expressing Mad1-BirA or mutants were treated with biotin as indicated and biotinylated proteins were isolated. The samples were analysed for the presence of KNL1, Bub1 and BubR1 by western blot. Mad1-BirA (WT), Mad1(EFR/AAA)-BirA and Mad1 (RLK/AAA)-BirA. Representative of two independent experiments. […] Live cell imaging and quantification were performed as in Fig. 5a. […] The number of cells analysed per condition is indicated above. […]
Bub1 peptides were purchased from Biosyntan Gmbh (Germany). The purity obtained in the synthesis was 95–98% as determined by high-performance liquid chromatography (HPLC) and the identity of the peptides was confirmed by mass spectrometry. […] Sensorgrams were analysed after double referencing. […]

SMILES: CCCC[C@H](NC(=O)[C@H](CC(N)=O)NC(=O)[C@H](CCCC)NC(=O)[C@@H](NC(=O)[C@H](Cc1ccccc1)NC(=O)CNC(=O)[C@H](CC(C)C)NC(=O)[C@H](C)NC(=O)[C@H](CCC(=O)O)NC(=O)[C@H](CCCCN)NC(=O)[C@@H](NC(=O)[C@H](Cc1c[nH]cn1)NC(=O)[C@@H](NC(=O)[C@@H](NC(=O)[C@@H]1CCCN1C(=O)[C@H](CO)NC(=O)[C@@H]1CCCN1C(=O)[C@H](CCC(N)=O)NC(=O)[C@@H](NC(=O)[C@H](CCCCN)NC(=O)[C@H](CO)NC(=O)[C@@H]1CCCN1C(=O)[C@@H](NC(=O)[C@H](C)NC(=O)[C@H](CCC(N)=O)NC(=O)[C@@H](NC(=O)CCCC[C@@H]1SC[C@@H]2NC(=O)N[C@@H]21)C(C)C)[C@@H](C)O)C(C)C)[C@@H](C)OP(=O)(O)O)C(C)C)[C@@H](C)O)[C@@H](C)CC)C(=O)N[C@@H](Cc1ccccc1)C(=O)N[C@@H](CCC(N)=O)C(=O)N[C@@H](C)C(=O)N1CCC[C@H]1C(=O)N[C@H](C(=O)N[C@@H](CC(C)C)C(=O)N[C@@H](Cc1c[nH]c2ccccc12)C(=O)O)[C@@H](C)O [CD1 pT461] (Biotin-VQATPSKVQPSP[pT]VHTKEALGFI[Nle]N[Nle]FQAPTLW-OH; C-terminus assumed)
- binding (Mad1 597–718 RLK/AAA): no binding
- KD [1]: the same affinity towards phosphorylated CD1 as wild type Mad1
